Reference: PubChem BioAssay AID687032 (Broad Institute, 2013)
Inconclusive results are not listed.

System: IOSE-T80 viability, CellTiterGlo ATP luminescence, 96 h
Test: IOSE-T80 viability loss, PAX8-independent line – cell-based, cherry-pick, selectivity assay for PAX8 inhibitor project, dose response (AID 687032)

SMILES | AC50 [nM]
CC(C)(C)[C@H](N)C(=O)N[C@H]1CCC2C3CC=C4C[C@@H](O)CC[C@]4(C)C3CC[C@@]21C (stereo partly specified) | < 260
CCOC(=O)c1c(-c2ccc(F)cc2)csc1NC(=O)CN1C(=O)NC2(CCCCC2C)C1=O (stereo unspecified) | 9070
O=S(=O)(NCC1CCCO1)c1cnc(Cl)c(Br)c1 (stereo unspecified) | < 260
N#Cc1ccc(-c2ccc(C3[C@@H]4CN(C(=O)C5CC5)C[C@H]3N4)cc2)cc1 (stereo partly specified) | < 260
C[C@@H]1CN([C@@H](C)CO)C(=O)Cc2cc(NC(=O)NC3CCCCC3)ccc2O[C@@H]1CN(C)Cc1ccc(-c2ccccc2)cc1 | 27800
CCOc1ccc(-n2c(=S)sc3c(=O)[nH]c(SCC(=O)NCC4CCCO4)nc32)cc1 (stereo unspecified) | < 260
COc1ccc(NC(=O)c2c(Nc3ccccc3)sc(C(=O)c3ccc(F)cc3)c2N)cc1 | < 260
C[C@]12CCC3C(CCC4=CC(O)CC[C@@]43/C=N/O)C1(O)CCC2C1=CC(=O)OC1 (stereo partly specified) | < 260
CCC(C)(O)C(=O)OC1C(=O)OC2CC3C(C)=CC(=O)C(O)C3(C)C3C4(O)OCC23C1C(C)C4O (stereo unspecified) | 8840
Cc1ccc(-c2csc3ncnc(Sc4nnc(CN5CCCCCC5=O)o4)c23)cc1 | 8670
O=C(Nc1ccc(Cl)c(Cl)c1)N[C@@H]1CC[C@H](CCn2cc(C3CCCCC3)nn2)O[C@H]1CO | < 260
COc1cccc(S(=O)(=O)N2CC[C@H]3[C@@H](CO)N(C)c4ccc(C#Cc5ccc(F)cc5)cc4[C@H]32)c1 | 34500
O=[N+]([O-])c1cccnc1S(=O)(=O)c1ccccc1 | < 260
CCOC(=O)Nc1ccc2c(c1)N(C(=O)CCN(CC)CC)c1ccccc1S2=O (stereo unspecified) | < 260
C[C@H]1CCCCO[C@H](CN(C)Cc2ccc(C(F)(F)F)cc2)[C@@H](C)CN([C@@H](C)CO)C(=O)c2cc(NC(=O)c3ccccc3)ccc2O1 | 32100
C[C@@H]1CN([C@H](C)CO)C(=O)c2cc(NC(=O)Nc3ccc(F)cc3)ccc2O[C@@H](C)CCCCO[C@@H]1CN(C)Cc1ccc2c(c1)OCO2 | < 260
O=S(=O)(c1ccccc1F)N1CC[C@@H]2[C@@H](CO)Nc3ccc(C4=CCCCC4)cc3[C@@H]21 | < 260
CCN1CCN(c2nc(-c3cccs3)nc3ccccc23)CC1 | 10400
C[C@@H]1CN([C@H](C)CO)C(=O)Cc2cc(NC(=O)Nc3ccc(F)cc3)ccc2O[C@H]1CN(C)Cc1ccc(Cl)c(Cl)c1 | < 260
C[C@@H]1CN([C@H](C)CO)C(=O)c2cc(NS(=O)(=O)c3ccc(Cl)cc3)ccc2O[C@@H](C)CCCCO[C@@H]1CN(C)Cc1ccccc1 | < 260
Cn1ncc2c(O/N=C(\N)c3ccc(C(F)(F)F)cc3)ncnc21 | < 260

SMILES | AC50 [nM]
C[C@@H]1CCCCO[C@@H](CN(C)S(=O)(=O)c2ccc(Cl)cc2)[C@H](C)CN([C@H](C)CO)C(=O)c2cc(NS(=O)(=O)c3ccc(F)cc3)ccc2O1 | < 260
C[C@@H]1CCCCO[C@@H](CN(C)C(=O)Nc2cccc3ccccc23)[C@H](C)CN([C@H](C)CO)C(=O)c2cc(NS(=O)(=O)c3ccccc3)ccc2O1 | < 260
O=C(Cc1nnc(NC(=O)c2ccccc2)s1)N/N=C/c1ccco1 | < 260
Cc1noc(C)c1S(=O)(=O)Nc1ccc2c(c1)C(=O)N([C@H](C)CO)C[C@H](C)[C@@H](CN(C)C(=O)Nc1ccc(C(F)(F)F)cc1)OCCCC[C@H](C)O2 | 23300
O=C(NCc1ccco1)C1CCCN(S(=O)(=O)c2ccc(Br)cc2)C1 (stereo unspecified) | < 260
C[C@@H]1CCCCO[C@@H](CN(C)Cc2ccc(C(F)(F)F)cc2)[C@@H](C)CN([C@@H](C)CO)C(=O)c2cc(NS(=O)(=O)c3ccc(F)cc3)ccc2O1 | < 235
COc1cc(/C=N/O)ccc1OCc1ccc(C(=O)O)cc1 | 9950
COc1ccc(NC(=O)Nc2ccc3c(c2)C(=O)N([C@@H](C)CO)C[C@@H](C)[C@@H](CN(C)CC2CCCCC2)OCCCC[C@@H](C)O3)cc1 | < 260
O=c1cc(-c2ccccc2)oc2ccc3ccccc3c12 | < 260
COc1ccc(S(=O)(=O)Nc2ccc3c(c2)C(=O)N([C@H](C)CO)C[C@H](C)[C@H](CN(C)Cc2ccc(C(F)(F)F)cc2)OCCCC[C@H](C)O3)cc1 | 3450
CCCC(=O)NC(c1ccc(C(C)C)cc1)c1ccc2cccnc2c1O (stereo unspecified) | < 260
Cc1ccsc1/C=N/Nc1cccc(C(=O)O)c1 | 17300
CCCn1c(C)cc(C(=O)CN2C(=O)c3ccccc3S2(=O)=O)c1C | < 260
O=C(Nc1cccc(NC(=O)c2cccs2)c1)c1ccc([N+](=O)[O-])o1 | 8620
Cc1ccc(S(=O)(=O)Nc2ccc3c(c2)CC(=O)N([C@H](C)CO)C[C@H](C)[C@H](CN(C)S(=O)(=O)c2ccc(F)cc2)O3)cc1 | < 260
COc1cc(C2C3=C(COC3=O)Oc3cc4c(cc32)OCO4)cc(OC)c1O (stereo unspecified) | < 260
Cc1ccc(NC(=O)CN(C)C(=O)Cn2ncc(Cl)c(Cl)c2=O)cc1 | < 260
COCCn1c(C)cc(C2=NNC(=NC3CC3)SC2)c1C | < 260
O=C1c2cccc3cc([N+](=O)[O-])cc(c23)C(=O)N1CCN1CCCC1 | < 260
S=c1sc2c(Cl)ncnc2n1-c1ccccc1 | < 260
